Reference: patent US10611750B2, “Tetrahydroquinoline compositions as bet bromodomain inhibitors” (FORMA Therapeutics, Inc., priority 2013, dated 2020)
Like-named read-outs stand apart in the source and are kept apart here.

Legend:
[1] = system: acute myelocytic leukemia (AML) cell line MV4-11; assay: Oncology cell growth assay (3-day proliferation, CellTiter-Glo); assay type: cell-based; settings: Homo sapiens, MV4-11 cells, 3000 cells/well, compounds listed under IC50 range headings, read-out: MV411 IC50 (gIC50, inhibition of proliferation)
Summary of the method: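 72 h, 37° C, 5% CO2; MV4-11, 3000 cells/well, RPMI 1640 + 10% FBS. Compound final 10, 3.3, 1.1, 0.37, 0.12, 0.041, 0.013, 0.0045 μM. Readout CellTiter-Glo luminescence; gIC50 by 4-parameter logistic fit, normalised to DMSO and no-cell background.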

[2] = target: T1, BRD4 Bromodomain 1 (BRD4 BD1) (Homo sapiens, UniProt O60885); assay: AlphaScreen binding assay, BRD4 BD1; settings: His-tagged BRD4 BD1 50 nM, biotinylated H4 (1-21) K5/8/12/16 tetra-acetylated peptide 50 nM, compounds listed under IC50 range headings
T1 construct: 44-168 and BRD4 BD2
Summary of the method: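 Compound dilution series were mixed with His-tagged BRD4 bromodomain and biotinylated tetra-acetylated H4 (1-21) peptide at pH 7.3 (BD1 and peptide at 50 nM, BD2 and peptide at 100 nM). Donor and acceptor beads were then added, and plates were equilibrated at least 1 h before reading. IC50 values were fitted with a four-parameter logistic model.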

SMILES	IC50 ([1]; MV4-11, 72 h) [nM]	IC50 [2] [nM]	IC50 ([1]; 72 hours) [nM]
C#Cc1ccc2c(c1Oc1ccccc1)CC[C@H](C)N2C(=O)C1CC1 [I-345, (S)-cyclopropyl(6-ethynyl-2-methyl-5-phenoxy-3,4-dihydroquinolin-1(2H)-yl)methanone]	> 1000	≥ 10000	
C#Cc1ccc2c(c1Oc1ccccc1)CC[C@H](C)N2C(=O)OC [I-346, (S)-methyl 6-ethynyl-2-methyl-5-phenoxy-3,4-dihydroquinoline-1(2H)-carboxylate]	> 1000	≥ 10000	
CC#Cc1ccc2c(c1Oc1ccccc1)CC[C@H](C)N2C(=O)C1CC1 [I-347, (S)-cyclopropyl(2-methyl-5-phenoxy-6-(prop-1-ynyl)-3,4-dihydroquinolin-1(2H)-yl)methanone]	> 1000	≥ 10000	
C[C@H]1CCc2c(ccc(-n3cc(C4CCNCC4)cn3)c2Oc2ccccc2)N1C(=O)C1CC1 [I-348, (S)-cyclopropyl(2-methyl-5-phenoxy-6-(4-(piperidin-4-yl)-1H-pyrazol-1-yl)-3,4-dihydroquinolin-1(2H)-yl)methanone]	< 500	1000 to 10000	
COC(=O)N1c2ccc(-c3csc(C4(F)CNC4)n3)c(OC3CCC3)c2CC[C@@H]1C [I-349, (S)-methyl 5-cyclobutoxy-6-(2-(3-fluoroazetidin-3-yl)thiazol-4-yl)-2-methyl-3,4-dihydroquinoline-1(2H)-carboxylate]	> 1000	1000 to 10000	
COC(=O)N1c2ccc(-c3csc(C4(OC)CNC4)n3)c(OC3CCC3)c2CC[C@@H]1C [I-350, (S)-methyl 5-cyclobutoxy-6-(2-(3-methoxyazetidin-3-yl)thiazol-4-yl)-2-methyl-3,4-dihydroquinoline-1(2H)-carboxylate]	> 1000	1000 to 10000	
COC(=O)N1c2ccc(-c3cnn(C4CCNCC4)c3F)c(OC3CCC3)c2CC[C@@H]1C [I-360, methyl (S)-5-cyclobutoxy-6-(5-fluoro-1-(piperidin-4-yl)-1H-pyrazol-4-yl)-2-methyl-3,4-dihydroquinoline-1(2H)-carboxylate]		100 to 1000	< 500
COC(=O)N1c2ccc(-c3cnn([C@@H]4CCNC[C@H]4F)c3)c(OC3CCC3)c2CC[C@@H]1C [I-367, methyl (2S)-5-cyclobutoxy-6-{1-[(3R,4R)-3-fluoropiperidin-4-yl]-1H-pyrazol-4-yl}-2-methyl-1,2,3,4-tetrahydroquinoline-1-carboxylate]	< 500	100 to 1000	
COC(=O)N1c2ccc(-c3cnn([C@@H]4CCNC[C@H]4F)c3)c(Oc3ccc(F)cc3)c2CC[C@@H]1C [I-368, methyl (2S)-5-(4-fluorophenoxy)-6-{1-[(3R,4R)-3-fluoropiperidin-4-yl]-1H-pyrazol-4-yl}-2-methyl-1,2,3,4-tetrahydroquinoline-1-carboxylate]	< 500	100 to 1000	
C[C@H]1CCc2c(ccc(-c3cnn([C@@H]4CCNC[C@@H]4F)c3)c2OC2CCC2)N1C(=O)C1CC1 [I-369, (2S)-5-cyclobutoxy-1-cyclopropanecarbonyl-6-{1-[(3S,4R)-3-fluoropiperidin-4-yl]-1H-pyrazol-4-yl}-2-methyl-1,2,3,4-tetrahydroquinoline]	< 500	100 to 1000	
CC(=O)N1c2ccc(-c3cnn(C4CC4)c3)c(OCC(C)C)c2CC[C@@H]1C [I-394]	< 500	100 to 1000	
C[C@H]1CCc2c(ccc(-c3cnn(C4CCOCC4)c3)c2OC2CCC2)N1C(=O)C1CC1 [I-507]	500 to 1000	100 to 1000	
C[C@H]1CCc2c(ccc(-c3cnn(C4CCCS(=O)(=O)C4)c3)c2OC2CCC2)N1C(=O)C1CC1 (stereo partly shown) [I-508]	< 500	100 to 1000	
C[C@H]1CCc2c(ccc(-c3cnn(C4CS(=O)(=O)C4)c3)c2OC2CCC2)N1C(=O)C1CC1 [I-509]	< 500	100 to 1000	
